Results taken from ChEMBL document CHEMBL1201862, “PubChem BioAssay data set” (2004).
Activity calls are given as the source filed them.

Columns and labels:
[1] = cells; format: functional, cell-based
[2] = molecular target: T1, Nuclear receptor subfamily 0 group B member 1 (Homo sapiens, UniProt P51843); format: functional, cell-based;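 further: HEK293T cells transfected with SF-1 and DAX-1 plus StAR promoter luciferase reporter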
T1 sequence (P51843 whole entry): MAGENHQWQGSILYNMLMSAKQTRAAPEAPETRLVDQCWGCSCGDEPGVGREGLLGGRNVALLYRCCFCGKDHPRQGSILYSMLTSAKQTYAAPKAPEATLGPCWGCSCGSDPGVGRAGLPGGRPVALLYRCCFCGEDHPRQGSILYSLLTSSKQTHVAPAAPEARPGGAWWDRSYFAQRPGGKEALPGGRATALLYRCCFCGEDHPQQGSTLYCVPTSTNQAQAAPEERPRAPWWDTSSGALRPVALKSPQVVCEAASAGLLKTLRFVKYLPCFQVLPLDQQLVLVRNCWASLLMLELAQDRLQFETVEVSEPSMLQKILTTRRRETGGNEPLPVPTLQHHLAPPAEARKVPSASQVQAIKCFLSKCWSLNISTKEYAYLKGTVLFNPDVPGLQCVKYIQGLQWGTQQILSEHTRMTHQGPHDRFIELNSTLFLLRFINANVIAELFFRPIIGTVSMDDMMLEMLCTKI

[3] = molecular target: Fructose-bisphosphate aldolase (Mycobacterium tuberculosis, UniProt P9WQA3); test: Fluorescence-based biochemical high throughput dose response assay for inhibitors of the fructose-bisphosphate aldolase (FBA) of M. tuberculosis.; format: functional
Chain of Fructose-bisphosphate aldolase (P9WQA3 whole entry): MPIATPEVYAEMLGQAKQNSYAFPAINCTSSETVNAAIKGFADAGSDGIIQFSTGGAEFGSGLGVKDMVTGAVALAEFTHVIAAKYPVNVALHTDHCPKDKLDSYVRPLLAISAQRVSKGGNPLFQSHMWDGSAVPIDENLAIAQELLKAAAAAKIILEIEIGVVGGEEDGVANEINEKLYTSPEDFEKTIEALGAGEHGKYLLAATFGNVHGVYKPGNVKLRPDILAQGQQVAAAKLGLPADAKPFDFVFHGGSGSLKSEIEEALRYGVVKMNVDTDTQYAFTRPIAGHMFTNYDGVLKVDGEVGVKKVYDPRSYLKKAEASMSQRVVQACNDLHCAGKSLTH

[4] = molecular target: T2, Beta-lactamase (Pseudomonas aeruginosa, UniProt Q79MP6); test: […] counterscreen for selective VIM-2 inhibitors: dose response biochemical high throughput screening assay to identify inhibitors of IMP-1 metallo-beta-lactamase.
T2 sequence (Q79MP6 whole entry): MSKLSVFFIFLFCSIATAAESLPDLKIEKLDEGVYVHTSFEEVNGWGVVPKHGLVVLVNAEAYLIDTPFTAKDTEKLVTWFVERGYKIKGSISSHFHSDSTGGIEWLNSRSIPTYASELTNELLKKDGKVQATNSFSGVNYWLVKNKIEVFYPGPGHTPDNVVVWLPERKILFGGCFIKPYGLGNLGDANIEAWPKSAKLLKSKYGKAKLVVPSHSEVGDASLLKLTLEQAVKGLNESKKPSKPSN

[5] = molecular target: Beta-lactamase (Salmonella choleraesuis (strain SC-B67), UniProt Q5J463); test: Epi-absorbance-based counterscreen for selective VIM-2 inhibitors: dose response biochemical high throughput screening assay to identify inhibitors of TEM-1 serine-beta-lactamase.
Chain of Beta-lactamase (Salmonella choleraesuis (strain SC-B67), UniProt Q5J463) (Q5J463 whole entry): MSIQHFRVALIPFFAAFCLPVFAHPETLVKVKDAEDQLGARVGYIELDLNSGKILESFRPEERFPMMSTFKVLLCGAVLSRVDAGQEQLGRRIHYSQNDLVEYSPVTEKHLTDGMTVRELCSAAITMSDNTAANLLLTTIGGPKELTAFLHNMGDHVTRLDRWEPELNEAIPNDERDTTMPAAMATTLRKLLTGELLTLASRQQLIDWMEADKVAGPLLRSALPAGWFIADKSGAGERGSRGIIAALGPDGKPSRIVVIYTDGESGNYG

[6] = molecular target: T2, Beta-lactamase; test: IMP-1 metallo-beta-lactamase inhibitors, dose response, selectivity assay for VIM-2 inhibitor project, biochemical, epi-absorbance (AID 1920)
[7] = test system: Vero; test: Vero cell toxicity, dose response, cytotoxicity control, plate reader, cherry-pick samples (AID 687020); format: functional, cell-based; settings: Chlorocebus sabaeus
[8] = molecular target: Protein Wnt-3a (Mus musculus, UniProt P27467); test: Wnt3a-driven reporter signaling inhibition, dose response, selectivity assay for Gli-SUFU antagonist project, Wnt-LIGHT cells, luminescence (AID 651570); format: functional; settings: read-out: IC50_Mean;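 further: Wnt-LIGHT reporter cells stimulated with conditioned medium from Wnt3a-producing cells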
Chain of Protein Wnt-3a (P27467 whole entry): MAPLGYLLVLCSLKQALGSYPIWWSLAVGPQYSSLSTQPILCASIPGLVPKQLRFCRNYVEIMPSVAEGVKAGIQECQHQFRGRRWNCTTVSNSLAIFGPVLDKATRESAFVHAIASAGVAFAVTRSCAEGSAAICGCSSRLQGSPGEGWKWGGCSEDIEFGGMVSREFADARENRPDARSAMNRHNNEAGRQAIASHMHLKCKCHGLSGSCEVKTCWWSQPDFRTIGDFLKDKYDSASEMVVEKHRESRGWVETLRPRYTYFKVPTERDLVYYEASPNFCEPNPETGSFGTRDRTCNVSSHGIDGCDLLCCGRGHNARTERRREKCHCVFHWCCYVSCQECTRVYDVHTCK

[9] = AlphaScreen signal interference compounds, dose response, artefact control for ARNT-TACC3 interaction inhibitor project, biochemical, luminescence, cherry-pick (AID 651705); format: functional;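 further: AlphaScreen bead proximity signal that flags compounds interfering with the detection technology; potency reflects signal decrease which marks the compound as an assay artifact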
[10] = molecular target: T3, DNA repair protein RAD52 homolog (Homo sapiens, UniProt P43351); format: functional, biochemical
T3 sequence (P43351 whole entry): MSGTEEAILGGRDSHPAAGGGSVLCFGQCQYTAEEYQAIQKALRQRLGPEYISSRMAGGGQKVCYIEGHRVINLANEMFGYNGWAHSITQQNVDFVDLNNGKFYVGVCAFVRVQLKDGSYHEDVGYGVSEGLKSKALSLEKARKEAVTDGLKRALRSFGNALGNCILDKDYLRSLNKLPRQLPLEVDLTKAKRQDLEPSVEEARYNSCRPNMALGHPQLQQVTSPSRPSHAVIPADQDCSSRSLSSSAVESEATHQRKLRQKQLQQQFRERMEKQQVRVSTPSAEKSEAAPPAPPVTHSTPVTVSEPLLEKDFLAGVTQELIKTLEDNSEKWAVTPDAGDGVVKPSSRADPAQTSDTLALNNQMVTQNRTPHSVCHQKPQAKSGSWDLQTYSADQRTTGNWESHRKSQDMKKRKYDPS

[11] = molecular target: DNA repair and recombination protein RAD54-like (Homo sapiens, UniProt Q92698); test: inhibitors of human RAD54 branch migration, confirmation, biochemical, fluorescence, cherry-picked samples, dose series (AID 651657); format: functional
Chain of DNA repair and recombination protein RAD54-like (Q92698 whole entry): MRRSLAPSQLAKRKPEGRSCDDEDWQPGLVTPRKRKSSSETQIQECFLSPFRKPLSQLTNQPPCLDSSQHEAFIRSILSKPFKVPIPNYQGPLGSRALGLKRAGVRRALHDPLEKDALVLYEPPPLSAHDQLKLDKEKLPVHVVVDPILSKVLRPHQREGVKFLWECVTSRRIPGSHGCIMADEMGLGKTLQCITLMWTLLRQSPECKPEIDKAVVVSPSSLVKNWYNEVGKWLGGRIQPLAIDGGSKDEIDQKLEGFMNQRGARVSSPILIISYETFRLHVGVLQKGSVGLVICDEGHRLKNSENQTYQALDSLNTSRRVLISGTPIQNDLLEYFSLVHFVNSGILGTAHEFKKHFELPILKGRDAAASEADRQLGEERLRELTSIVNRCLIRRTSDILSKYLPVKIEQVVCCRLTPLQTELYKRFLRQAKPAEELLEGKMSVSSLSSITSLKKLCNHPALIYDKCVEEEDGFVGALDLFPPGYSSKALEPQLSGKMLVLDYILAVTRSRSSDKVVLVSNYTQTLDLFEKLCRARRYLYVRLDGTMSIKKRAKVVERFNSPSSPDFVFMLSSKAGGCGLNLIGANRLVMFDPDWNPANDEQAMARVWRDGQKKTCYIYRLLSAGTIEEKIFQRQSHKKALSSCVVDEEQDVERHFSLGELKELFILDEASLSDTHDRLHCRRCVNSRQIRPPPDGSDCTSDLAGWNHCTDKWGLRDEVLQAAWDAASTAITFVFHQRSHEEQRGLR

[12] = THP-1 cell cytotoxicity, dose response, cytotoxicity control for Vif-APOBEC3G degradation inhibitor project, THP-1 cells (AID 1117359); format: functional; settings: Human immunodeficiency virus 1, THP-1
[13] = inhibitors of intracellular T. cruzi replication, confirmation, NIH3T3 host cells, beta-gal luminescence (AID 2044); format: functional, cell-based;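 further: intracellular parasites grown in NIH/3T3 mouse fibroblasts as host cells; luminescent beta-galactosidase reporter signal from transgenic T. cruzi replicating inside host cells; inhibitors lower the luminescence signal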
[14] = molecular target: Histone-lysine N-methyltransferase NSD2 (Homo sapiens, UniProt O96028); format: biochemical
[15] = molecular target: Eukaryotic translation initiation factor 4E (Mus musculus, UniProt P63073); test: eIF4E–eIF4G protein interaction inhibitors, dose response, biochemical, TR-FRET (AID 855); format: functional;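 further: potency for disrupting eIF4E binding to eIF4GI seen as loss of FRET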
Chain of Eukaryotic translation initiation factor 4E (P63073 whole entry): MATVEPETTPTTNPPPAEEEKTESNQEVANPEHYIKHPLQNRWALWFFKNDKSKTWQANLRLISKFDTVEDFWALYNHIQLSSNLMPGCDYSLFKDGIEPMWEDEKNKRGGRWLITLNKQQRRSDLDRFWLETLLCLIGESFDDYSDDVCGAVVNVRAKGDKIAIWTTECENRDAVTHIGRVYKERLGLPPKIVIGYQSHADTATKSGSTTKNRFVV

[16] = test system: INS1; test: beta cell apoptosis inhibitors, cytokine rescue, dose response, luminescence, retest (AID 449756); format: functional, cell-based; settings: Rattus norvegicus;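 further: cell death triggered by IL-1 beta plus TNF-alpha plus IFN-gamma mixture; protective hits raise ATP signal compared with cytokine alone wells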
[17] = molecular target: Induced myeloid leukemia cell differentiation protein Mcl-1 (Homo sapiens, UniProt Q07820); format: functional
[18] = C. albicans growth with fluconazole, confirmation, fluorescence, retest (AID 2467); format: functional, cell-based
[19] = molecular target: Paired box protein Pax-8 (Homo sapiens, UniProt Q06710); test: inhibitors of PAX8-driven TPO luciferase reporter, dose response, RMG-I cells, cherry-pick (AID 687027); format: functional, cell-based;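 further: luciferase reporter driven by Pax8 target thyroperoxidase promoter measured by SteadyGlo luminescence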
[20] = NIH-3T3 fibroblast cytotoxicity, dose response, cytotoxicity control, cell-based, fluorescence, Alamar Blue, secondary assay (AID 2327); format: functional;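 further: NIH-3T3 mouse fibroblasts cultured with fluconazole at 8 µg/mL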
[21] = cytotoxicity toward NIH3T3 fibroblasts, dose response, counter-screen, cell-based, ATP luminescence, mouse fibroblasts (AID 2010); format: functional;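 further: cells exposed to compound for about 90 hours before reading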
[22] = insulin promoter down-regulators in MIN6 cells, imaging, high-content screening, mouse beta cells (AID 1628); format: functional
[23] = cytotoxicity in MIN6 insulinoma cells, dose response, cytotoxicity control, cell-based, mouse insulinoma (AID 2122); format: functional;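 further: confirmatory high-throughput counterscreen run to flag cytotoxic compounds; mouse MIN-6 beta cells carrying an insulin promoter eGFP reporter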
[24] = HEK293T cytotoxicity, dose response, cytotoxicity control for miR-122 modulator project, cell-based, activator set, cherry-pick (AID 720690); format: functional;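 further: HEK293T human cells scored for general mammalian cytotoxicity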
[25] = HEK293T cytotoxicity, dose response, cytotoxicity control for miR-122 modulator project, cell-based, inhibitor set, cherry-pick, set 2 (AID 720697); format: functional
[26] = molecular target: T4, Fatty acid synthase (Homo sapiens, UniProt P49327); test: FAS thioesterase domain inhibitors, dose response, biochemical, endpoint fluorescence intensity, uHTS hits (AID 624327); format: functional;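 further: fluorescence from hydrolysis of an O-methyl fluorescein acyl ester substrate by the enzyme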
T4 sequence (P49327 whole entry, the tested form may be a part): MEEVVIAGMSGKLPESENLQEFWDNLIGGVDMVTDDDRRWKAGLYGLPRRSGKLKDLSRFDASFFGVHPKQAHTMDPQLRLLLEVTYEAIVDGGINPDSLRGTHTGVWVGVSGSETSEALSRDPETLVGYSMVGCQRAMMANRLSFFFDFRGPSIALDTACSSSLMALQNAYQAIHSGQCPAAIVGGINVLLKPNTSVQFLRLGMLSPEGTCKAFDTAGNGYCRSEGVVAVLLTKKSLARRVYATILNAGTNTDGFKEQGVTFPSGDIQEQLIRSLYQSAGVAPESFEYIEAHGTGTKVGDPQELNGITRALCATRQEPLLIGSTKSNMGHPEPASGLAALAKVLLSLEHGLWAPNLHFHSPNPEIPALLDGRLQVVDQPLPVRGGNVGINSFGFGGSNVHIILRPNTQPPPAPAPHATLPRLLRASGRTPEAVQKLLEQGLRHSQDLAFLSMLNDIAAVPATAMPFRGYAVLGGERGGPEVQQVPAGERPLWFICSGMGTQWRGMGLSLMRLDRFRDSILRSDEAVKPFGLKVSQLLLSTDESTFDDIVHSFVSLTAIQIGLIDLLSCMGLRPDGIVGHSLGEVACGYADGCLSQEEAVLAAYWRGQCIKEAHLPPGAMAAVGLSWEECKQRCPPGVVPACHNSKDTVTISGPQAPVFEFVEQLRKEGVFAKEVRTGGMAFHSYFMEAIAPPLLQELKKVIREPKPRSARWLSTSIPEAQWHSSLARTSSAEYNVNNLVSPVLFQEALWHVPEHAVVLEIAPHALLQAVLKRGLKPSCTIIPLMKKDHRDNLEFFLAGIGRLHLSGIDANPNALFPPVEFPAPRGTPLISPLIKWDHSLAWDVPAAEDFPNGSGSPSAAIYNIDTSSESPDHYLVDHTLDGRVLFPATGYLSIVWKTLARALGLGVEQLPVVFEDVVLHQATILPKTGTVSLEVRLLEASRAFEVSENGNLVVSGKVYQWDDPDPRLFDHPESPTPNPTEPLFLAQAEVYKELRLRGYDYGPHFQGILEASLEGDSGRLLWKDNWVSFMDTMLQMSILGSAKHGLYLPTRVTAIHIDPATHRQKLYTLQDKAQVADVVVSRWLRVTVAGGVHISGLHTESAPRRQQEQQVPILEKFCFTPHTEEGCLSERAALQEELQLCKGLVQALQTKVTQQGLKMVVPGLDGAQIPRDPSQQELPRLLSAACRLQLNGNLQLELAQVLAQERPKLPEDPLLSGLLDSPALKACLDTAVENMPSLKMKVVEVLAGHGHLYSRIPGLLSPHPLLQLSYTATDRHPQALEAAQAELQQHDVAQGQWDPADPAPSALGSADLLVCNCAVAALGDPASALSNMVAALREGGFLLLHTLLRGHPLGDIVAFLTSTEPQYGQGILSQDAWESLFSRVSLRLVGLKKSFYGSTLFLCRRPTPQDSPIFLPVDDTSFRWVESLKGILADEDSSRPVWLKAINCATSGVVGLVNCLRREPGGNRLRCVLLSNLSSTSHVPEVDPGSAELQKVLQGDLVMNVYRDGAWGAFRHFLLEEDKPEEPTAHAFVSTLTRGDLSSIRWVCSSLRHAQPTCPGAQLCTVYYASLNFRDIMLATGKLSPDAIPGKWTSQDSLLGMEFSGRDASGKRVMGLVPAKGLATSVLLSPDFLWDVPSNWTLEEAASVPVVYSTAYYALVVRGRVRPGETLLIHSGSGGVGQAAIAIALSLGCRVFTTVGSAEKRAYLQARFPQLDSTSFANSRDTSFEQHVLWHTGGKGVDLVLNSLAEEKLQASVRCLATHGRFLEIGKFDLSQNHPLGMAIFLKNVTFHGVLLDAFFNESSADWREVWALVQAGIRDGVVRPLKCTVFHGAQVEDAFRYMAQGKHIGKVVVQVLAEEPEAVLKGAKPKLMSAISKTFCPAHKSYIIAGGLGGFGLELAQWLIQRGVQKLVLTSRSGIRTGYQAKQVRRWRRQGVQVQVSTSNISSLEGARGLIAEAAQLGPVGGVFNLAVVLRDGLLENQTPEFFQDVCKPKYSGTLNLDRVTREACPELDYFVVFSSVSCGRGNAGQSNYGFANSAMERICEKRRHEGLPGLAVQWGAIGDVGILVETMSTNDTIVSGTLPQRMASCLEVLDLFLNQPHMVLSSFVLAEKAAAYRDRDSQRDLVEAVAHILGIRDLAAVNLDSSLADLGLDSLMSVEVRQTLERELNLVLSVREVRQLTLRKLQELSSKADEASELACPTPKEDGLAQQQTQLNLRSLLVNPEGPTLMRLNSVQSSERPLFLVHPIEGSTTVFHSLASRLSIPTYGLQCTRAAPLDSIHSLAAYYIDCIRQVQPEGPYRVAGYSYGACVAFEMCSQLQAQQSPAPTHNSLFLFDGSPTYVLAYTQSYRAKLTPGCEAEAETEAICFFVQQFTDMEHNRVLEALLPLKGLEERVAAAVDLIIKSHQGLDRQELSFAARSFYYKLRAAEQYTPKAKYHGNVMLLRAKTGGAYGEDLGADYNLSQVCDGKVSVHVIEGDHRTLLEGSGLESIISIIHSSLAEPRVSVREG

[27] = Luminescence Cell-Based Dose Retest to Confirm Inhibitors of Cancer Stem Cells. [Related pubchem assays (depositor defined):AID2717, AID2721]; format: functional; settings: Homo sapiens
[28] = molecular target: T4, Fatty acid synthase; test: FAS thioesterase domain inhibitors, dose response, biochemical, kinetic fluorescence intensity (AID 624326); format: functional;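 further: rate of fluorescence rise from hydrolysis of a fluorogenic O-methyl fluorescein ester substrate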
[29] = test system: HEK293; test: cells; settings: Homo sapiens
[30] = molecular target: Melanocortin receptor 4 (Homo sapiens, UniProt P32245); format: functional, cell-based;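 further: Cell-based assay with luminescence read-out, confirmatory dose-response testing for agonist activity of biased ligands at MC4R; human U2OS cells with tagged receptor and beta-arrestin; potency of agonists that increase receptor coupling to beta-arrestin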
[31] = Counterscreen for inhibitors of Trypanosoma brucei methionyl tRNA synthetase (MetRS): Luminescence-based cell-based high throughput dose response assay to identify compounds that are cytotoxic to Jurkat human T lymphocyte cells.; format: functional
[32] = molecular target: T5, Methionyl-tRNA synthetase, putative (Trypanosoma brucei brucei, UniProt Q38C91); format: functional, Trypanosoma brucei brucei strain 927/4 GUTat10.1
T5 sequence (Q38C91 whole entry): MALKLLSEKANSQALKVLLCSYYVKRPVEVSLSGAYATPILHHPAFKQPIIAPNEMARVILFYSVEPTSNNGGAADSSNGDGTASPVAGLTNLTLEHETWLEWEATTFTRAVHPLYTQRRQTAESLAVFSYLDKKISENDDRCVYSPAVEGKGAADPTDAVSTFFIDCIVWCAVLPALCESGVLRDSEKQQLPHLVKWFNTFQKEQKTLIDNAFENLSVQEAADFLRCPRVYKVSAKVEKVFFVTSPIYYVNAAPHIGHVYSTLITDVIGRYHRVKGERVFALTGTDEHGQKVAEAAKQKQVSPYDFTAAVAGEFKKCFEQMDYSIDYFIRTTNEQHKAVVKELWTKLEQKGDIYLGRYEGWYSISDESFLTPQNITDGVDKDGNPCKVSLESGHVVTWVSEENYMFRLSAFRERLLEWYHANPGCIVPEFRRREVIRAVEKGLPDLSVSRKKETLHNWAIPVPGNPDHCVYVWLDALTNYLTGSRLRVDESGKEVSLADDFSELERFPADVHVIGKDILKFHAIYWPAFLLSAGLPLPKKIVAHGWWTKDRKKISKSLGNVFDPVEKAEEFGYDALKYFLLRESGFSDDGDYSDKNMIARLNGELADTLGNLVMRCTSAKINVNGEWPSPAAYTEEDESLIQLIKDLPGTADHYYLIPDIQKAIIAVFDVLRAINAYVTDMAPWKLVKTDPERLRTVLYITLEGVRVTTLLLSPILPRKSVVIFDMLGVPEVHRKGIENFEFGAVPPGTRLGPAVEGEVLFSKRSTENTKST

[33] = test system: HEK293; test: cells; settings: Homo sapiens; remark: listed apart in the source
[34] = molecular target: T5, Methionyl-tRNA synthetase, putative; format: functional, Trypanosoma brucei brucei strain 927/4 GUTat10.1; remark: listed apart in the source
[35] = miR-122 activators in hepatoma reporter cells, dose response, cell-based, Huh7 psiCHECK-miR122, Renilla luciferase, cherry-picked (AID 651956); format: functional;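 further: huh7 hepatoma cells stably carrying a psiCHECK-2 miR-122 sensor plasmid; renilla luciferase signal reporting endogenous miR-122 activity after 48 h compound exposure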
[36] = HEK293 cell cytotoxicity, dose response, cytotoxicity control, plate reader, cherry-picked samples (AID 743446); format: functional, cell-based
[37] = HepG2 cell cytotoxicity, dose response, cytotoxicity control, plate reader, cherry-pick, antagonist series (AID 743416); format: functional, cell-based
[38] = LGR2 antagonists, dose response, cell-based, HEK293, CRE-luciferase reporter, cherry pick, set 2 (AID 743343); format: functional;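 further: transfected cells were stimulated with diluted bursicon conditioned medium after compound addition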
[39] = MC4R antagonists, dose response, counter-screen for LGR2 antagonist project, cell-based, plate reader, cherry pick (AID 743444); format: functional;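 further: transfected HEK 293 cells stimulated with alpha-MSH peptide; potency of inhibitors of the alpha-MSH evoked signal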
[40] = A549 cell cytotoxicity, dose response, cytotoxicity control, plate reader, cherry-pick, antagonist series (AID 743412); format: functional, cell-based
[41] = cells; format: functional, cell-based; remark: listed apart in the source
[42] = cells; format: functional, cell-based; remark: listed apart in the source
[43] = molecular target: Nonstructural protein 1 (Influenza A virus, UniProt Q194T2); format: functional, Influenza A virus (A/California/07/2009(H1N1))
Chain of Nonstructural protein 1 (Q194T2 whole entry): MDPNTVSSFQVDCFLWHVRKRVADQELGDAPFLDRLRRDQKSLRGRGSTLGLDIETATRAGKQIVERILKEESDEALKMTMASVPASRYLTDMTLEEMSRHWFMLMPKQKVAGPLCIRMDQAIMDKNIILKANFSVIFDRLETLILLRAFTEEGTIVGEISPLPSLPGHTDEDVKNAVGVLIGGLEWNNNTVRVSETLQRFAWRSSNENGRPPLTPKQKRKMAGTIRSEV

O=C(c1ccc2nc(Cc3ccccc3F)oc2c1)N1CC[C@H](O)C1
IC50 [1]: > 67.6 µM (inactive)
IC50 [2]: > 67.6 µM (inactive)

COCCn1c(SCC(=O)N2CCCCC2)nc2c(c1=O)SCC2
IC50 [3]: > 9.99 µM (inactive)

O=c1c2ccccc2cnn1Cc1nnc(S)n1C1CC2CCC1C2 (stereo not given)
IC50 [4]: > 59.6 µM (inactive)
IC50 [5]: > 59.6 µM (inactive)
IC50 [6]: > 59.6 µM (inactive)

COc1ccccc1CNC(=O)C(=O)Nc1ccc(C(=O)N2CCC(C)CC2)cc1
AC50 [7]: 25.8 µM (active)

CC[N+](CC)(CC#Cc1ccccc1)CC#Cc1ccccc1
IC50 [8]: 35.2 µM (inactive)

CC1CC1C(=O)Nc1nc(-c2ccccn2)cs1 (stereo not given)
AC50 [9]: 82.6 µM (active)

CCOCCCN=C(S)Nc1ccc2nc(N3CCN(CC)CC3)cc(C)c2c1
AC50 [10]: 33 µM (active)
AC50 [11]: 100 µM (inactive)
CC50 [12]: > 40 µM (active)

CN1c2ccccc2N(C)C1(C)c1ccccc1
EC50 [13]: 0.278 µM (active)
AC50 [14]: > 20 µM (inactive)
IC50 [15]: > 64 µM (inactive)
AC50 [16]: 0.283 µM (active)
IC50 [17]: 4.95 µM (active)
EC50 [18]: > 38 µM (not active)
AC50 [19]: 9.4 µM (active)
EC50 [20]: > 150 µM (inactive)
EC50 [21]: > 60 µM (not active)

C=CCNc1nc2c(c(=O)n(C)c(=O)n2C)n1Cc1ccc(F)cc1
IC50 [22]: 1.13 µM (active)
IC50 [8]: 5.06 µM (active)
IC50 [23]: 0.892 µM (active)

Cc1oc(C)c(C(=O)Nc2ccc(CC(=O)O)cc2)c1C(=O)Nc1ccc(CC(=O)O)cc1
IC50 [3]: > 9.99 µM (inactive)

CN(C)CCNc1nc2sc3c(c2c(=O)n1CCc1ccccc1)CCCCC3
EC50 [13]: 0.125 µM (active)
AC50 [24]: 14.7 µM (active)
AC50 [25]: 7.83 µM (active)
IC50 [26]: 18.8 µM (active)
AC50 [27]: 6.6 µM (active)
EC50 [21]: 30.9 µM (active)
IC50 [28]: 19.3 µM (active)

COc1cc2c(c(OC)c1OC)-c1ccc(OC)c(=O)cc1C(NC(=O)c1ccccc1)CC2 (stereo not given)
IC50 [1]: > 67.5 µM (inactive)
IC50 [2]: > 67.5 µM (inactive)

NC(Cc1ccc(Cl)cc1)c1csc(NC(=O)Nc2ccccc2)n1 (stereo not given)
EC50 [29]: > 59.6 µM (inactive)
EC50 [30]: > 89.2 µM (inactive)
IC50 [31]: 13.7 µM (inactive)
IC50 [32]: 2.09 µM (active)
EC50 [33]: > 59.6 µM (inactive)
IC50 [34]: 4.07 µM (active)

CN1C(=O)c2cc(NC(=O)Nc3cccc(Cl)c3)ccc2OC[C@@H]2O[C@H](CC(=O)NCCc3ccncc3)CC[C@H]21
AC50 [35]: 16.1 µM (active)

CC(C)Oc1ccccc1OC1(C)CCN(Cc2ccc(OC(F)(F)F)cc2)C1 (stereo not given)
AC50 [7]: 27.4 µM (active)

C[C@H]1CN([C@@H](C)CO)S(=O)(=O)c2ccc(C#CC(C)(C)O)cc2O[C@@H]1CN(C)Cc1ccc(-c2ccccc2)cc1
AC50 [24]: 12.3 µM (active)
AC50 [36]: 1.95 µM (active)
AC50 [35]: 7.8 µM (active)
AC50 [25]: 10.7 µM (active)
AC50 [37]: 0.759 µM (active)
AC50 [38]: 29.6 µM (active)
AC50 [39]: 20.2 µM (active)
AC50 [40]: 0.778 µM (active)

Cc1ncc(CO)c(/C=N/NC(=O)c2cc3c(s2)CCCC3)c1O
EC50 [41]: > 350 µM (not active)
EC50 [42]: 11.4 µM (active)
AC50 [16]: 1.89 µM (active)
IC50 [43]: 11.9 µM (active)
AC50 [9]: 119 µM (active)
